target: T1, CXCR7 (Homo sapiens, UniProt P25106); assay: CXCR7 β-arrestin recruitment assay in CHO-CXCR7 cells (ProLink/EA β-galactosidase complementation), induced by human SDF-1a; type: cell-based; conditions: assay buffer, SDF-1a at EC50 concentration
T1 construct: expressed in transfected cells; host or cells: CHO cells (CHO-CXCR7), transgenes maintained with Hygromycin B and G418
How it was run: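 SDF-1α-induced β-arrestin recruitment was measured by enzyme-fragment complementation (ProLink-CXCR7 with β-arrestin-EA) in stable CHO cells. Agonist was dosed at its EC50, determined the same day, alongside serially diluted compound for 1.5 h at 37 °C. Fluorogenic galactoside substrate (0.4 mM, 30 min) was read at 360/465 nm, with IC50 from 3-parameter nonlinear regression.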

T1 sequence (P25106 whole entry): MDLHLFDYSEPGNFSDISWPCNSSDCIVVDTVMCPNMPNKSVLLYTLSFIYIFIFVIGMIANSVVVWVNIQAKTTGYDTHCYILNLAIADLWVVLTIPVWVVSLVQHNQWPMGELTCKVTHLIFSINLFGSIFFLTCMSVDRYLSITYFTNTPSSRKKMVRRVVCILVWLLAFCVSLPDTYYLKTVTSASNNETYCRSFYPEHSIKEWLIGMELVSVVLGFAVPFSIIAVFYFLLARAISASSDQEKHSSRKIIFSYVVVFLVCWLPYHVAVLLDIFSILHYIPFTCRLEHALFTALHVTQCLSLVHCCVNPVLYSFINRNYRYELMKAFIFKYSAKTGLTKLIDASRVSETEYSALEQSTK

SMILES	IC50
Cc1ccnc(C(C)(C)NC(=O)CC2(NC(=O)c3cc(-c4ccc(F)cc4F)on3)CN([C@H]3CC[C@](C)(O)CC3)C2)n1 [Example 1.202]	< 5 nM
COc1cccc(C(C)(C)NC(=O)CC2(NC(=O)c3cc(-c4ccc(F)cc4F)on3)CN([C@H]3CC[C@@](C)(O)CC3)C2)n1 [Example 1.203]	< 5 nM
COc1cccc(C(C)(C)NC(=O)CC2(NC(=O)c3cc(-c4ccc(F)cc4F)on3)CN([C@H]3CC[C@](C)(O)CC3)C2)n1 [Example 1.204]	< 5 nM
COc1ccc(F)c(C(C)(C)NC(=O)CC2(NC(=O)c3cc(-c4ccc(F)cc4F)on3)CN([C@H]3CC[C@@](C)(O)CC3)C2)c1 [Example 1.205]	5 to 100 nM
CC(C)(NC(=O)CC1(NC(=O)c2cc(-c3ccc(F)cc3F)on2)CN([C@H]2CC[C@@](C)(O)CC2)C1)c1ccc(F)cn1 [Example 1.207]	100 to 1000 nM
CCc1cccc(C(C)(C)NC(=O)CC2(NC(=O)c3cc(-c4ccc(F)cc4F)on3)CN([C@H]3CC[C@](C)(O)CC3)C2)c1 [Example 1.209]	5 to 100 nM
Cc1cc(C(C)(C)NC(=O)CC2(NC(=O)c3cc(-c4ccc(F)cc4F)on3)CN([C@H]3CC[C@](C)(O)CC3)C2)ccn1 [Example 1.211]	< 5 nM
COc1ccc(C(C)(C)NC(=O)CC2(NC(=O)c3cc(-c4ccc(F)cc4F)on3)CN([C@H]3CC[C@](C)(O)CC3)C2)c(F)c1 [Example 1.213]	100 to 1000 nM
Cc1cccc(C(C)(C)NC(=O)CC2(NC(=O)c3cc(-c4ccc(F)cc4F)on3)CN([C@H]3CC[C@@](C)(O)CC3)C2)c1 [Example 1.214]	< 5 nM
CC1(CN2CC(CC(=O)NC(C)(C)c3cccc(Cl)c3)(NC(=O)c3cc(-c4ccc(F)cc4F)on3)C2)COC1 [Example 1.216]	< 5 nM
Cc1cccc(C(C)(C)NC(=O)CC2(NC(=O)c3cc(-c4ccc(F)cc4F)on3)CN(CC3(C)COC3)C2)n1 [Example 1.217]	5 to 100 nM
CC(C)(NC(=O)CC1(NC(=O)c2cc(-c3ccc(F)cc3F)on2)CN([C@H]2CC[C@@](C)(O)CC2)C1)c1ccccc1Cl [Example 1.218]	< 5 nM
CC(C)(NC(=O)CC1(NC(=O)c2cc(-c3ccc(F)cc3F)on2)CN([C@H]2CC[C@@](C)(O)CC2)C1)c1cccc(Cl)c1 [Example 1.220]	< 5 nM
CC1(CN2CC(CC(=O)NC(C)(C)c3ccccn3)(NC(=O)c3cc(-c4ccc(F)cc4F)on3)C2)COC1 [Example 1.224]	5 to 100 nM

Results, then the compound that gave them:

IC50	SMILES
5 to 100 nM	COc1ccc(F)c(C(C)(C)NC(=O)CC2(NC(=O)c3cc(-c4ccc(F)cc4F)on3)CN([C@H]3CC[C@](C)(O)CC3)C2)c1 [Example 1.206]
< 5 nM	CCc1cccc(C(C)(C)NC(=O)CC2(NC(=O)c3cc(-c4ccc(F)cc4F)on3)CN([C@H]3CC[C@@](C)(O)CC3)C2)c1 [Example 1.208]
< 5 nM	Cc1cc(C(C)(C)NC(=O)CC2(NC(=O)c3cc(-c4ccc(F)cc4F)on3)CN([C@H]3CC[C@@](C)(O)CC3)C2)ccn1 [Example 1.210]
5 to 100 nM	COc1ccc(C(C)(C)NC(=O)CC2(NC(=O)c3cc(-c4ccc(F)cc4F)on3)CN([C@H]3CC[C@@](C)(O)CC3)C2)c(F)c1 [Example 1.212]
< 5 nM	Cc1ccccc1C(C)(C)NC(=O)CC1(NC(=O)c2cc(-c3ccc(F)cc3F)on2)CN([C@H]2CC[C@](C)(O)CC2)C1 [Example 1.215]
< 5 nM	CC(C)(NC(=O)CC1(NC(=O)c2cc(-c3ccc(F)cc3F)on2)CN([C@H]2CC[C@](C)(O)CC2)C1)c1ccccc1Cl [Example 1.219]
< 5 nM	CC(C)(NC(=O)CC1(NC(=O)c2cc(-c3ccc(F)cc3F)on2)CN([C@H]2CC[C@](C)(O)CC2)C1)c1cccc(Cl)c1 [Example 1.221]
100 to 1000 nM	CC(C)(NC(=O)CC1(NC(=O)c2cc(-c3ccc(F)cc3F)on2)CN(CC2CCOCC2)C1)c1ccccn1 [Example 1.222]
100 to 1000 nM	CC(C)(NC(=O)CC1(NC(=O)c2cc(-c3ccc(F)cc3F)on2)CN(CC2CCOC2)C1)c1ccccn1 (centres unmarked) [Example 1.223]
